For the assay, the system named is MIAPaCa-2 cells. The assay can be described thus: Combination of NAnO3 and existing anticancer agents, sequential administration (neutral red). Format: cell-based, human. As to conditions: exposed only to the anticancer agent (doxorubicin 0.1, gemcitabine 0.04, cisplatin 4 μg/mL); DMEM medium = 100%. As to the method:
A cell suspension was prepared such that MIAPaCa-2 viable cell count became 5×10^4 cells/mL. The cell suspension (1 mL) was seeded in each of wells of a 12 well plate, allowed to stand in a CO2 incubator set at 37° C. and 5% CO2 and cultured for 18 hours or more to allow the cells to adhere to the bottom of the plate. After the completion of culture, the medium was removed from the plate and the following test-substance solutions were added.
Test-substance solutions 1 to 6 were prepared in the same manner as in Section 2.1 and used. Test-substance solutions 7 to 9 were prepared by adding each anticancer agent/DMEM medium (0.9 mL) and, in several minutes later, adding 0.1 mL of NAnO3. The same operation was also repeated after 48 hours and 72 hours.
After the completion of culture, the medium was removed and washing with PBS (−) was made. To each of the wells of the plate, a 0.005% neutral red (NR) (Kanto Chemical Co., Inc., Lot No. 806W2294) D-MEM solution (1 mL) was added and the plate was allowed to stand in a CO2 incubator for 3 hours. After 3 hours, the NR solution was removed and washing was made with PBS (−). To each plate, 1 mL of a fixation/extraction liquid (ethanol 50% (v/v), glacial acetic acid 1% (v/v) aqueous solution) was added and shaking was made for 10 minutes. Thereafter, the value of the absorbance was measured by using a microplate reader (EL×800, BIO-TEC INSTRUMENTS, INC., wavelength: 540 nm).
Provided that the absorbance of DMEM medium (test-substance solution 1) was regarded as 100%, the cell survival rate (%) of each test group was obtained (FIG. 4).

Among the data in US20200384018A1, “OZONE NANOBUBBLE ANTICANCER AGENT” (OPT CREATION INC., priority 2017, published 2020) are cell survival rate values, retold here.

SMILES strings stand for the structures. Structures can show the parent of a compound that is named as a salt.

Turning to `COc1cccc2c1C(=O)c1c(O)c3c(c(O)c1C2=O)C[C@@](O)(C(=O)CO)C[C@@H]3O[C@H]1C[C@H](N)[C@H](O)[C@H](C)O1` [doxorubicin, doxorubicin hydrochloride], the cell survival rate is recorded as 51.1%. With `Nc1ccn([C@@H]2O[C@H](CO)[C@@H](O)C2(F)F)c(=O)n1` [gemcitabine, gemcitabine hydrochloride], the cell survival rate worked out at 44.8%. In the case of `N.N.[Cl][Pt][Cl]` [cisplatin], the cell survival rate was 47.5%.
